Results published in patent EP0429304A2, “Pyridone-carboxylic acid derivatives and their use as veterinary medicines” (SHIONOGI SEIYAKU KABUSHIKI KAISHA trading under the name of …, priority 1989, dated 1991).
Where two headings read alike, the source gives them in different places.

Experiments:
[1] = tested on: TS-resistant strain of MG; type: in vivo, chicken; conditions: for Infectious index Left air sack + / Infectious index Left air sack ++ / Infectious index Left air sack +++ / Infectious index Left air sack - / Infectious index Right air sack + / Infectious index Right air sack ++ / Infectious index Right air sack +++ / Infectious index Right air sack -: count of fowl; for Infectious index Left air sack + / Infectious index Left air sack ++ / Infectious index Left air sack +++ / Infectious index Left air sack - / Infectious index Right air sack + / Infectious index Right air sack ++ / Infectious index Right air sack +++ / Infectious index Right air sack - / Number of fowl having air sack lesions: 10-days chicken, 1.2 x 10³ CFU/fowl
[2] = tested on: Escherichia coli (E.coli) JC-2; experiment: In vitro sensitivity test (agar dilution method); type: cell-based; conditions: 37°C, 20 to 24 hours
Method: (§1) Survey of the sensitivity of the compound (I) to various strains of microorganisms was performed by a liquid dilution method […] an agar dilution method, in which the bacteria used were of animal origin and included the following strains (15 strains out of 11 bacteria): Chicken-origin strain: Mycoplasma gallisepticum (MG), Mycoplasma synoviae (MS), Hemophilus paragallinarum (H.pg) and Escherichia coli (E.coli); Pig-origin strain: Mycoplasma hyopneumoniae (Mh), Hemophilus pleuropneumonia (H.pp) and Bordetella bronchiseptica (B.br); Fish-origin strain: Pasteurella piscicida (P.pis) and Streptococcus sp (Str.sp); others: Escherichia coli (E. coli), Salmonella typhimurium (S.typhi) and Staphylococcus aureus (S.au).
(§2) Of these bacteria, the strains belonging to MG, MS and Mh were cultured at 37°C for 7 days by a liquid dilution method, of which the culture medium comprised: 12 % horse-serum added "PPLO" (agar manufactured by Difco) medium for MG; 12 % pig-serum, 0.01 % βNAD (nicotinamide adenine dinucleotide) added Frey medium for MS; 0.5 % lactoalbumin added Hank's solution, 10 % horse-serum, 0.5 % yeast extract (25 %) for Mh, and the agar dilution method was applied to the strains belonging to H.pg, H.pp, S.typhi, E.coli, S.au and B.br. Specifically, the H.pg strain was cultured in a 5 % chicken-serum added chicken bouillon medium and the H.pp strain was cultured in a heart infusion agar added with 10 % sheep defibered blood and 0.05 % βNAD. In case of the H.pg and P.pp strains, observation was made after cultivation at 37°C for 20 hours under 10 % CO₂. Mueller Hinton agar (Difco) was used for the strains belonging to S.typhi, E.coli, S.au and B.br, and observation was made after cultivation at 37°C for 20 to 24 hours. P.pis and Str.sp, both being of fish-origin, were respectively cultured at 25°C for 40 to 48 hours in a 1.5 % NaCl added heart infusion agar and in a sensitive disk medium.

[3] = tested on: Staphylococcus aureus (S.au) 209P; experiment: In vitro sensitivity test (agar dilution method); type: cell-based; conditions: 37°C, 20 to 24 hours
Method: as §1, §2

[4] = tested on: Hemophilus pleuropneumonia (H.pp) M-1; experiment: In vitro sensitivity test (agar dilution method); type: cell-based; conditions: 37°C, 20 hours, 10 % CO₂
Method: as §1, §2

[5] = tested on: Salmonella typhimurium (S.typhi) 13311; experiment: In vitro sensitivity test (agar dilution method); type: cell-based; conditions: 37°C, 20 to 24 hours
Method: as §1, §2

[6] = tested on: Bordetella bronchiseptica (B.br) ABU-1; experiment: In vitro sensitivity test (agar dilution method); type: cell-based; conditions: 37°C, 20 to 24 hours
Method: as §1, §2

[7] = tested on: Hemophilus paragallinarum (H.pg) S-1; experiment: In vitro sensitivity test (agar dilution method); type: cell-based; conditions: agar dilution, 37°C, 20 hours, 10 % CO₂
Method: as §1, §2

[8] = tested on: Escherichia coli (E.coli) E-17, chicken-origin strain isolated from the field; experiment: In vitro sensitivity test (agar dilution method); type: cell-based; conditions: 37°C, 20 to 24 hours
Method: as §1, §2

[9] = tested on: Hemophilus paragallinarum (H.pg) 221; experiment: In vitro sensitivity test (agar dilution method); type: cell-based; conditions: agar dilution, 37°C, 20 hours, 10 % CO₂
Method: as §1, §2

[10] = tested on: Mycoplasma gallisepticum (MG) S6; experiment: In vitro sensitivity test (liquid dilution method); type: cell-based; conditions: 37°C, 7 days
Method: as §1, §2

[11] = tested on: Mycoplasma gallisepticum (MG) T-7-T, TS-resistant strain isolated from the field; experiment: In vitro sensitivity test (liquid dilution method); type: cell-based; conditions: 37°C, 7 days
Method: as §1, §2

[12] = tested on: Pasteurella piscicida (P.pis) No. 2; experiment: In vitro sensitivity test; type: cell-based; conditions: 25°C, 40 to 48 hours
Method: as §1, §2

[13] = tested on: Streptococcus sp (Str.sp) SNO6119; experiment: In vitro sensitivity test; type: cell-based; conditions: 25°C, 40 to 48 hours
Method: as §1, §2

## CNC[C@@]12CCC[C@@H]1CN(c1cc3c(cc1F)c(=O)c(C(=O)O)cn3C1CC1)C2 (relative stereo) [I-1, 7-[(1R*,5S*)-1-methylaminomethyl-3-azabicyclo[3.3.0]octan-3-yl]-1-cyclopropyl-6-fluoro-1,4-dihydro-4-oxo-3-quinolinecarboxylic acid]
[1]; oral 3.13 mg/kg
  Infectious index Left air sack +: 1
  Infectious index Left air sack ++: 0
  Infectious index Left air sack +++: 0
  Infectious index Left air sack -: 4
  Infectious index Right air sack +: 1
  Infectious index Right air sack ++: 3
  Infectious index Right air sack +++: 1
  Infectious index Right air sack -: 0
  Number of fowl having air sack lesions: 5
[1]; oral 6.25 mg/kg
  Infectious index Left air sack +: 0
  Infectious index Left air sack ++: 0
  Infectious index Left air sack +++: 0
  Infectious index Left air sack -: 5
  Infectious index Right air sack +: 3
  Infectious index Right air sack ++: 1
  Infectious index Right air sack +++: 0
  Infectious index Right air sack -: 1
  Number of fowl having air sack lesions: 4
[1]; oral 12.5 mg/kg
  Infectious index Left air sack +: 0
  Infectious index Left air sack ++: 0
  Infectious index Left air sack +++: 0
  Infectious index Left air sack -: 5
  Infectious index Right air sack +: 0
  Infectious index Right air sack ++: 1
  Infectious index Right air sack +++: 0
  Infectious index Right air sack -: 4
  Number of fowl having air sack lesions: 1
[1]; oral 25.0 mg/kg
  Infectious index Left air sack +: 0
  Infectious index Left air sack ++: 0
  Infectious index Left air sack +++: 0
  Infectious index Left air sack -: 5
  Infectious index Right air sack +: 0
  Infectious index Right air sack ++: 0
  Infectious index Right air sack +++: 0
  Infectious index Right air sack -: 5
  Number of fowl having air sack lesions: 0
[1]; in vivo, po
  antimicrobial activity compared with ERFX: nearly equal potency to ERFX
[2]
  In vitro Sensitivity Test E.coli JC-2: 0.2 µg/mL
[3]
  In vitro Sensitivity Test S.au 209P: 0.025 µg/mL
[4]
  In vitro Sensitivity Test H.pp M-1: 0.39 µg/mL
[5]
  In vitro Sensitivity Test S.typhi 13311: 0.2 µg/mL
[6]
  In vitro Sensitivity Test B.br ABU-1: 12.5 µg/mL
[7]
  In vitro Sensitivity Test H.pg S-1: 0.78 µg/mL
[8]
  In vitro Sensitivity Test E.coli E-17: 0.2 µg/ml
[9]
  In vitro Sensitivity Test H.pg 221: 0.78 µg/mL
[10]
  In vitro Sensitivity Test MG S6: 0.0125 µg/mL
[11]
  In vitro Sensitivity Test MG T-7-T: 0.025 µg/mL
[12]
  In vitro Sensitivity Test P.pis No. 2: 0.78 µg/mL
[13]
  In vitro Sensitivity Test Str.sp SNO6119: 0.78 µg/mL
